Measured values reported in ChEMBL document CHEMBL3885881, “DrugMatrix”.

Organism: Rattus norvegicus
Assay: DrugMatrix - Regimen: Daily Repeat
Type: toxicity, organism-based, Sprague-Dawley
Set-up: regimen Daily Repeat, gender Male, age 6-8 weeks
Settings: in vivo, po, route oral GAVAGE, vehicle 100 % WATER; for ABSOLUTE BASOPHIL / ABSOLUTE EOSINOPHIL / ABSOLUTE LYMPHOCYTE / ABSOLUTE MONOCYTE / ABSOLUTE SEGMENTED NEUTROPHIL / BASOPHIL / EOSINOPHIL / ERYTHROCYTE COUNT / HEMATOCRIT / HEMOGLOBIN / LEUKOCYTE COUNT / LYMPHOCYTE / MEAN CORPUSCULAR HEMOGLOBIN / MEAN CORPUSCULAR HEMOGLOBIN CONCENTRATION / MEAN CORPUSCULAR VOLUME / MONOCYTE / NEUTROPHIL / NUCLEATED RED BLOOD CELLS / PLATELET COUNT: tissue Blood; for ALANINE AMINOTRANSFERASE / ALBUMIN / ALKALINE PHOSPHATASE / ASPARTATE AMINOTRANSFERASE / BLOOD UREA NITROGEN / CARBON DIOXIDE / CHLORIDE / CHOLESTEROL / CREATINE PHOSPHOKINASE / CREATININE / GLUCOSE / LACTATE DEHYDROGENASE / LIPASE / PHOSPHORUS / POTASSIUM / SODIUM / TOTAL BILIRUBIN / TOTAL PROTEIN / URIC ACID: tissue Plasma
[1] = 27 mg/kg, 120 h, dose level Low, time 5 day
[2] = 54 mg/kg, 72 h, dose level High, time 3 day
[3] = 54 mg/kg, 120 h, dose level High, time 5 day

## CNNCc1ccc(C(=O)NC(C)C)cc1 [PROCARBAZINE]
[1]
  ABSOLUTE BASOPHIL: 0 CELLS/uL
  ABSOLUTE EOSINOPHIL: 16.67 CELLS/uL
  ABSOLUTE LYMPHOCYTE: 6271.33 CELLS/uL
  ABSOLUTE MONOCYTE: 33.33 CELLS/uL
  ABSOLUTE SEGMENTED NEUTROPHIL: 112 CELLS/uL
  BASOPHIL: 0%
  EOSINOPHIL: 0.33%
  ERYTHROCYTE COUNT: 5.26 x10E6/uL
  HEMATOCRIT: 33.2%
  HEMOGLOBIN: 13.37 G/DL
  LEUKOCYTE COUNT: 6.43 x10E3/uL
  LYMPHOCYTE: 97.33%
  MEAN CORPUSCULAR HEMOGLOBIN: 25.4 pg
  MEAN CORPUSCULAR HEMOGLOBIN CONCENTRATION: 40.27 G/DL
  MEAN CORPUSCULAR VOLUME: 63.07 fL
  MONOCYTE: 0.67%
  NEUTROPHIL: 1.67%
  NUCLEATED RED BLOOD CELLS: 0 /100WBC
  PLATELET COUNT: 1312.67 x10E3/uL
  ALANINE AMINOTRANSFERASE: 59.67 u/L
  ALBUMIN: 4.33 G/DL
  ALKALINE PHOSPHATASE: 347 u/L
  ASPARTATE AMINOTRANSFERASE: 78.67 u/L
  BLOOD UREA NITROGEN: 13.67 mg/dL
  CARBON DIOXIDE: 33.67 mmol/L
  CHLORIDE: 98 MEQ/L
  CHOLESTEROL: 69 mg/dL
  CREATINE PHOSPHOKINASE: 304.67 u/L
  CREATININE: 0.18 mg/dL
  GLUCOSE: 140.67 mg/dL
  LACTATE DEHYDROGENASE: 152 u/L
  LIPASE: 15.33 u/L
  PHOSPHORUS: 9.77 mg/dL
  POTASSIUM: 5.23 MEQ/L
  SODIUM: 144.95 MEQ/L
  TOTAL BILIRUBIN: 0.13 mg/dL
  TOTAL PROTEIN: 6.07 G/DL
  URIC ACID: 0.77 mg/dL
[2]
  ABSOLUTE BASOPHIL: 0 CELLS/uL
  ABSOLUTE EOSINOPHIL: 27.33 CELLS/uL
  ABSOLUTE LYMPHOCYTE: 4383.67 CELLS/uL
  ABSOLUTE MONOCYTE: 36 CELLS/uL
  ABSOLUTE SEGMENTED NEUTROPHIL: 119.67 CELLS/uL
  BASOPHIL: 0%
  EOSINOPHIL: 0.67%
  ERYTHROCYTE COUNT: 5.22 x10E6/uL
  HEMATOCRIT: 33.2%
  HEMOGLOBIN: 13 G/DL
  LEUKOCYTE COUNT: 4.57 x10E3/uL
  LYMPHOCYTE: 96%
  MEAN CORPUSCULAR HEMOGLOBIN: 24.93 pg
  MEAN CORPUSCULAR HEMOGLOBIN CONCENTRATION: 39.17 G/DL
  MEAN CORPUSCULAR VOLUME: 63.7 fL
  MONOCYTE: 0.67%
  NEUTROPHIL: 2.67%
  NUCLEATED RED BLOOD CELLS: 0 /100WBC
  PLATELET COUNT: 1130.67 x10E3/uL
  ALANINE AMINOTRANSFERASE: 49.67 u/L
  ALBUMIN: 4.13 G/DL
  ALKALINE PHOSPHATASE: 355.67 u/L
  ASPARTATE AMINOTRANSFERASE: 81.67 u/L
  BLOOD UREA NITROGEN: 13 mg/dL
  CARBON DIOXIDE: 33.67 mmol/L
  CHLORIDE: 100 MEQ/L
  CHOLESTEROL: 90 mg/dL
  CREATINE PHOSPHOKINASE: 291.67 u/L
  CREATININE: 0.1 mg/dL
  GLUCOSE: 146.67 mg/dL
  LACTATE DEHYDROGENASE: 99 u/L
  LIPASE: 9 u/L
  PHOSPHORUS: 9.63 mg/dL
  POTASSIUM: 5.66 MEQ/L
  SODIUM: 145.5 MEQ/L
  TOTAL BILIRUBIN: 0.1 mg/dL
  TOTAL PROTEIN: 6 G/DL
  URIC ACID: 0.43 mg/dL
[3]
  ABSOLUTE BASOPHIL: 0 CELLS/uL
  ABSOLUTE EOSINOPHIL: 0 CELLS/uL
  ABSOLUTE LYMPHOCYTE: 3873.67 CELLS/uL
  ABSOLUTE MONOCYTE: 49.33 CELLS/uL
  ABSOLUTE SEGMENTED NEUTROPHIL: 210.33 CELLS/uL
  BASOPHIL: 0%
  EOSINOPHIL: 0%
  ERYTHROCYTE COUNT: 5.43 x10E6/uL
  HEMATOCRIT: 33.9%
  HEMOGLOBIN: 13.27 G/DL
  LEUKOCYTE COUNT: 4.13 x10E3/uL
  LYMPHOCYTE: 93.33%
  MEAN CORPUSCULAR HEMOGLOBIN: 24.43 pg
  MEAN CORPUSCULAR HEMOGLOBIN CONCENTRATION: 39.13 G/DL
  MEAN CORPUSCULAR VOLUME: 62.37 fL
  MONOCYTE: 1%
  NEUTROPHIL: 5.67%
  NUCLEATED RED BLOOD CELLS: 0 /100WBC
  PLATELET COUNT: 1552.67 x10E3/uL
  ALANINE AMINOTRANSFERASE: 57.33 u/L
  ALBUMIN: 4.33 G/DL
  ALKALINE PHOSPHATASE: 297.33 u/L
  ASPARTATE AMINOTRANSFERASE: 75.67 u/L
  BLOOD UREA NITROGEN: 15.33 mg/dL
  CARBON DIOXIDE: 34 mmol/L
  CHLORIDE: 97.67 MEQ/L
  CHOLESTEROL: 81 mg/dL
  CREATINE PHOSPHOKINASE: 273.67 u/L
  CREATININE: 0.13 mg/dL
  GLUCOSE: 134.67 mg/dL
  LACTATE DEHYDROGENASE: 135.33 u/L
  LIPASE: 10 u/L
  PHOSPHORUS: 9.93 mg/dL
  POTASSIUM: 6 MEQ/L
  SODIUM: 143.97 MEQ/L
  TOTAL BILIRUBIN: 0.17 mg/dL
  TOTAL PROTEIN: 6.13 G/DL
  URIC ACID: 0.97 mg/dL
